Literature values in patent US9950112B2 (priority 2010, dated 2018).

Experiments:
[1] = morphine during early resuscitation following serious injuries; reduced from 76%
[2] = propofol concentration, human surgical patients, general anesthesia

Q: With `CN1CC[C@]23c4c5ccc(O)c4O[C@H]2[C@@H](O)C=C[C@H]3[C@H]1C5` [morphine] as the molecule, how does the “incidence of post-traumatic stress disorder (PTSD)” value [1] read?
A: Its value is 61%.

Q: Which EC50 for awakening [2] does the source give for `CC(C)c1cccc(C(C)C)c1O` [propofol] here?
A: The EC50 for awakening was 1.07 ± 0.13 mg/L.

Q: And the EC50 for orientation [2]?
A: The EC50 for orientation was 0.95 ± 0.19 mg/L.
